Laboratory results: patent US7615554B2, “Erastin and erastin binding proteins, and uses thereof” (Prolexys Pharmaceuticals, Inc., priority 2005, dated 2009)

Tests used:
[1] = system: engineered cell lines; assay: Selectivity across the engineered cell lines (calcein AM IC50 ratios); type: cell-based, human; conditions: from selectivity ratio for each subsequent pair of cell lines in a series
Method: To calculate this selectivity score between two cell lines, the IC50 for a compound in one cell line was divided by the IC50 for the same compound in a second cell line. […] The “tumor selectivity score” was calculated for each compound, by dividing the IC50 value for the compound in the parental, primary BJ cells by the IC50 value for the compound in engineered BJ-TERTALT/ST/RAS^V12 cells, containing all four genetic elements required to create tumorigenic cells (Table 1).
Applicants sought to determine the genetic basis of selectivity for each compound. That is, for each compound, they attempted to define the gene or combination of genes responsible for rendering cells sensitive to the compound (Table 1).
The IC50 in primary BJ cells was divided by the IC50 in BJ-TERT/LT/ST/RAS^V12 tumorigenic cells to obtain a tumor selectivity ratio for each compound. The compound selectivity for each genetic element was determined by calculating the selectivity ratio for each subsequent pair of cell lines in a series.

[2] = system: PANC-1 xenografts; assay: PANC-1 tumor treatment study; type: in vivo; conditions: immunodeficient nude mouse; once a day for five consecutive days
Method: The experimental plan for the PANC-1 study was essentially identical to that of the HT-1080 study outlined above in Example 10 with the following exceptions: approximately 30-40 mg fragment of passaged PANC-1 tumor tissue was implanted subcutaneously in the right flank of an immunodeficient nude mouse. Tumor growth was monitored daily and when the tumors reached approximately 100 mm^3, animals harboring similarly sized tumors were group matched and compound dosing was initiated. Administration of compound 5 occurred once a day for five consecutive days at the doses listed below. In the PANC-1 xenografts, gemcitabine, administered at the maximum tolerated dose for the model, was used as a control. The gemcitabine regimen was 180 mg/kg […] on every third day over a period of 9 days.

[3] = system: HT-1080 xenografts; assay: HT-1080 tumor treatment study; type: in vivo, mouse; conditions: nude Balb/c mice; 100 or 50 mg/Kg, QD×5 days, IP
Method: Nude Balb/c (Nu/Nu strain, Charles River Laboratories), female, 5-6 week old (˜20 g average body weight).
Both compounds were formulated in an identical manner. For the 100 mg/kg dose level, each compound was delivered at a concentration of 10.0 mg/ml, in an injection volume of 0.2 ml. For the 50 mg/kg dose level, each compound was delivered at a concentration of 5.0 mg/ml, in an injection volume of 0.2 ml. For both dose levels, the vehicle contained 0.025% Tween-80, 0.01% benzyl alcohol, 35 mM acetic acid (HOAc), 100 mM potassium phosphate-buffer, and 32 mM sucrose, pH=6.5.
• A: PRLX compound 6 @ 100 mg/Kg, QD×5 days, IP, n=8 • B: PRLX compound 6 @ 50 mg/Kg, QD×5 days, IP, n=8 • C: PRLX compound 5 @ 100 mg/Kg, QD×5 days, IP, n=8 • D: PRLX compound 5 @ 50 mg/Kg, QD×5 days, IP, n=8 • E: Vehicle Control, QD×5 days, IP, n=8 • F: Untreated Control, n=8 Treatment Schedule:
Beginning when the mean tumor volume reached ˜200 mm^3, and continuing through day 5, every day, each animal was administered a single IP injection of one of the above treatments, for a total of 5 doses. […]
Starting on Day 1, all animals were weighed, and tumor dimensions (length (L) and width (W)) were measured, every other day. […]
The resulting tumor volume values were averaged for each study group for each time point, and were then plotted against time. Variance was expressed as standard error of the mean (±SEM).

[4] = system: BJ-TERT/LT/ST/RAS^V12 tumorigenic cells; assay: Calcein AM viability assay, BJ-TERT/LT/ST/RAS^V12 cells; type: cell-based, human
Text: Described here is work carried out to identify compounds with increased potency or activity in the presence of hTERT, LT, ST, E6, E7 or RAS^V12. Although the work described herein made use of hTERT, LT, ST, E6, E7 and RAS^V12 as transforming genes, future studies can make use of a wide variety of cancer-associated alleles using this methodology in order to define the signaling networks that involve many oncogenes and tumor suppressors. Engineered cell lines with these genetic elements were used to screen 23,550 compounds, including 20,000 compounds from a combinatorial library, 1,990 compounds from the National Cancer Institute diversity collection, and 1,540 biologically active known compounds that were selected and purchased by Applicant and formatted into a screenable collection. […] Cell viability was measured using the dye calcein acetoxymethyl ester (calcein AM) (Wang et al., 1993, Hum. Immunol. 37, 264-270), which is a non-fluorescent compound that freely diffuses into cells. […]
Calcein acetoxylmethyl ester (AM) is a cell membrane-permeable, non-fluorescent compound that is cleaved by intracellular esterases to form the anionic, cell-impermeable, fluorescent compound calcein. […] Total fluorescence intensity in each well was recorded on a Packard Fusion platereader, and converted to a percent inhibition of signal by subtracting the instrument background and dividing by the average signal obtained when cells were not treated with any compound. […]
Mean RFU (relative fluorescence units) for untreated cells was calculated by averaging columns 1, 2, and 23 (wells with cells but lacking compounds). The calcein background was calculated by averaging column 24 (wells with calcein, but lacking cells). Percentage inhibition of each well was calculated as [1−(RFU−calcein control)/(untreated cell−calcein control)*100]. […]

[5] = system: BJ primary cells; assay: Sensitization of BJ primary cells by co-treatment (calcein AM viability); type: cell-based, human; conditions: BJ (or BJ-TERT) cells, simultaneous treatment with camptothecin
Text: (A-C) Western blot of lysates from BJ, BJ-TERT, BJ-TERT/LT/ST, BJ-TERT/LT/ST/RAS^V12, BJ-TERT/LT/RAS^V12 and BJ-TERT/LT/RAS^V12/ST cells with an antibody directed against topoisomerase II (A) or TOPI (B, C). In panel (C), cells were transfected with a siRNA directed against TOPI, lamic A/C or with a control double strand DNA duplex of the same length (TOPI dsDNA). In each case, the blot was probed with an antibody against eIF-4E to identify differences in the amount of protein loaded. The relative amount is quantitated below each band. (D) A TOPI siRNA prevents cell death caused by camptothecin in engineered tumor cells. Cell number was determined after transfection with a siRNA directed against TOPI and treatment with the indicated concentrations of camptothecin. (E) Okadaic acid, an inhibitor of PP2A and other cellular phosphatases, sensitizes primary human cells to camptothecin. BJ primary cells were treated simultaneously with the indicated concentrations of both camptothecin and okadaic acid and the effect on calcein AM viability staining was determined. […] BJ primary cells were treated with the indicated concentrations of okadaic acid and the expression level of TOPI was determined by western blot. The relative amount is quantitated below each band.
The compounds in group (iii) are camptothecin (CPT) and a novel compound from a combinatorial library, which Applicants have named erastin, for eradicator of RAS and ST-expressing cells (FIG. 2). Efficient CPT-induced and erastin-induced cell death requires the presence of both ST and RAS^V12 (FIGS. 3 and 4 and Table 1). Although CPT and erastin have a similar genetic basis of selectivity, they have distinct mechanisms of action. CPT is partially active in cells lacking RB function (via expression of E7), whereas erastin is not, and CPT requires two days to cause death in BJ-TERT/LT/ST/RAS^V12 cells, while erastin is 100% effective within 18 hours (FIGS. 3 and 4). […]

COc1ccc(C[C@H]2C(=O)N[C@@H](C)C(=O)N(C)[C@@H]3C(=O)N(C)[C@@H](Cc4ccc(O)c(c4)Oc4ccc(cc4)[C@@H]3O)C(=O)N[C@H](C)C(=O)N[C@@H](C)C(=O)N2C)cc1 [Bouvardin]
Genetic basis of Selectivity [1]: non-specific

CCOc1ccccc1-n1c(CN2CCNCC2)nc2ccccc2c1=O [Compound 5, 3-(2-ethoxyphenyl)-2-(piperazin-1-ylmethyl)quinazolin-4(3H)-one]
antitumor activity in PANC-1 xenografts (tumor volume) [2]: tumor regression
antitumor activity in HT-1080 xenografts (tumor volume) [3]: robust tumor regression

CCOc1ccccc1-n1c(C(C)N2CCNCC2)nc2ccccc2c1=O (stereo not shown) [Compound 6]
antitumor activity in PANC-1 xenografts (tumor volume) [2]: tumor growth inhibition
antitumor activity in HT-1080 xenografts (tumor volume) [3]: tumor growth inhibition

COc1cccc2c1C(=O)c1c(O)c3c(c(O)c1C2=O)C[C@@](O)(C(C)=O)C[C@@H]3O[C@H]1C[C@H](N)[C@H](O)[C@H](C)O1 [Daunorubicin, daunorubicin]
Genetic basis of Selectivity [1]: TERT/RB

COc1cccc2c1C(=O)c1c(O)c3c(c(O)c1C2=O)C[C@@](O)(C(=O)CO)C[C@@H]3O[C@H]1C[C@H](N)[C@H](O)[C@H](C)O1 [Doxorubicin, doxorubicin]
Genetic basis of Selectivity [1]: TERT/RB

CS[C@H]1SC[C@H]2C(=O)N(C)[C@@H](C(C)C)C(=O)OC[C@@H](NC(=O)c3cnc4ccccc4n3)C(=O)N[C@@H](C)C(=O)N(C)[C@@H]1C(=O)N(C)[C@@H](C(C)C)C(=O)OC[C@@H](NC(=O)c1cnc3ccccc3n1)C(=O)N[C@@H](C)C(=O)N2C [Echinomycin, echinomycin]
Genetic basis of Selectivity [1]: non-specific

CCOc1ccccc1-n1c(C(C)N2CCN(C(=O)COc3ccc(Cl)cc3)CC2)nc2ccccc2c1=O (stereo not shown) [Erastin, erastin]
effectiveness of cell killing ([4]; BJ-TERT/LT/ST/RAS^V12 cells, within 18 hours): 100%
time to irreversible, non-apoptotic cell death ([4]; ST- and RAS^V12-dependent): 12 to 24 h

O=C1c2c(O)ccc(O)c2C(=O)c2c(NCCNCCO)ccc(NCCNCCO)c21 [Mitoxantrone, mitoxantrone]
Genetic basis of Selectivity [1]: TERT/RB

NC(=O)c1cn([C@@H]2O[C@H](CO)[C@@H](O)[C@H]2O)c2ncnc(N)c12 [Sangivamycin, sangivamycin]
Genetic basis of Selectivity [1]: non-specific

COc1cc([C@@H]2c3cc4c(cc3[C@H](O)[C@H]3COC(=O)[C@H]23)OCO4)cc(OC)c1OC [podophyllotoxin]
sensitization to camptothecin [5]: does not sensitize BJ or BJ-TERT cells to CPT
